The target of series [1] is T1, human calcitonin receptor (hCTR2) (Homo sapiens, UniProt P30988).
T1 construct: expressed in transfected cells
T1 sequence (P30988 25-474): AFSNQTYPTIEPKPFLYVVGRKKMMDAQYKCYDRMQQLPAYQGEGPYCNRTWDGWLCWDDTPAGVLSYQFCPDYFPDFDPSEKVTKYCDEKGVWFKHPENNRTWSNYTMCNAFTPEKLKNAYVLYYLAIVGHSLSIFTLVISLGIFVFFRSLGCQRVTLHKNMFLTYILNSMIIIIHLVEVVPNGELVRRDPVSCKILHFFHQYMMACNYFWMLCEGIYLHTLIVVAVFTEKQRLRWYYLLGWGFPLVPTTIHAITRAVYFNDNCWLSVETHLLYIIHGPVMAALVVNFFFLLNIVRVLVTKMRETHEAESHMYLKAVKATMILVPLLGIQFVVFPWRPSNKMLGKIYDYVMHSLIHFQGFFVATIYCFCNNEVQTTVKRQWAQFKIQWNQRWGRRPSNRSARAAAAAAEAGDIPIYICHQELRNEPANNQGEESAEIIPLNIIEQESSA
The series is described as follows: hCTR2 cAMP assay (AlphaScreen) in COS7 cells. Format: cell-based. The note with it: cAMP induction, COS7 cells expressing hCTR2; Table 1; read-out: hCTR2 EC50. The text has this:
The cell line COS7, originating from African Green Monkey kidney fibroblast cells, was used for establishment of the stable cell lines described below. The COS7 cellular background was used due to it being RAMP naïve, and as such it provides the best available system for testing of the monomeric hCTR and different heterodimeric amylin receptor subtypes functionally generated by introduction of the individual RAMPs.
A cell line expressing the human calcitonin receptor (hCTR2) was generated in the COS7 cellular background as stable clones. In brief, hCTR2 (GI: 4502547) was amplified by PCR using primers encoding terminal restriction sites for subcloning. The 5′-end primers additionally encoded a near Kozak consensus sequence to ensure efficient translation. The fidelity of the DNA encoding the receptor was confirmed by DNA sequencing. The PCR products encoding the receptor were subcloned into a mammalian expression vector containing a neomycin (G418) resistance marker. The mammalian expression vector encoding the receptor was transfected into COS7 cells by a standard liposome transfection method. 48 hours post-transfection, cells were seeded for limited dilution cloning and selected with 1 mg/ml G418 in the culture medium. After 3 weeks, surviving colonies of hCTR2-expressing cells were picked, propagated and tested in the amylin efficacy assay as described in Example 3 below. One hCTR2-expressing clone was chosen for compound profiling.
In vitro activity of test peptides at the hCTR2 and hAMYR3 receptors was assessed by measuring the induction of cAMP following stimulation of the receptor using the AlphaScreen® cAMP Assay kit from Perkin-Elmer.
Briefly, COS7 cells expressing hCTR2 (see Example 2, above) were seeded at 30-40,000 cells per well in 96-well microtiter plates coated with 0.01% poly-L-lysine, and grown for 1 day in culture in 100 μl growth medium [DMEM, 10% FCS, Penicillin (100 IU/ml), Streptomycin (100 μg/ml)]. On the day of analysis, growth medium was removed and the cells were washed once with 200 μl Tyrode buffer [Tyrode's Salts (9.6 g/I), 10 mM HEPES, pH 7.4]. Cells were incubated in 100 μl Tyrode buffer containing increasing concentrations of test peptides, 100 µM IBMX and 0.1% casein for 15 min at 37° C. The reaction was stopped by carefully decanting off the compound/buffer medium and replacing it with lysis/detection buffer (80 μl 0.1% w/v BSA, 5 mM HEPES, 0.3% v/v Tween-20 in deionized water). After incubation at room temperature for 10 min., the cAMP content of the resulting cell lysate was estimated according to the AlphaScreen® cAMP Assay manufacturer's instructions. EC50 values were estimated by computer-aided curve fitting using the 4-parameter logistic (4PL) non-linear model.

A short description of series [2]: Assessment of physical stability (Thioflavin T fibrillation). Format: physicochemical. Set-up: key: FND = fibrillation not detected; FD = fibrillation detected. The note with it: 1 mg/ml, 40° C., ThT. The protocol:
Solutions containing (i) 1 mg/ml of test peptide, 40 μM ThT and 50 mM phosphate (Ph) buffer (pH 7.0), (ii) 1 mg/ml of test peptide, 40 μM ThT and 50 mM histidine (His) buffer (pH 7.0), and (iii) 1 mg/ml of test peptide, 40 μM ThT and 50 mM acetate (Ac) buffer (pH 4.0), were loaded in a 96-well black fluorescence plate (clear bottom) in triplicate. Data were collected at fixed intervals of 10 min, each preceded by 300 s of automixing (agitation), over a period of 96 hours at 40° C. Physical stability, expressed as lag-time of fibril formation (in hours), was defined as the intersection between two linear regressions representing the initial stable phase and the growth phase.

Series [3] in a line: Assessment of chemical stability (RP-HPLC normalized purity). Format: physicochemical. As for the experimental part: Samples of each test peptide were dissolved in MilliQ™ water, and the pH of the solution was adjusted to pH 4, pH 6, pH 7.5 or pH 9, respectively, using either HCl or NaOH. The final peptide concentration was 0.2 mg/ml. Samples were placed in glass vials and incubated at 40° C. The samples were analyzed by RP-HPLC on a C8 column with gradient elution using an ammonium formate/water eluent system, or on a C18 column with gradient elution using a trifluoroacetic acid/water eluent system. The area-percentage (area-%) of the main peak after incubation time T=t (relative to time T=0) was determined by UV spectroscopy at 220 nm.
The purity was first determined as follows:
Purity(area-%)=(area of main peak/total area of all peaks)×100.
The purity was then normalized between time points by setting purity at time 0 (T=0) to 100 for each pH value for a given peptide, as follows:
Normalised area-% at time t (T=t)=[area-%(T=t)/area-%(T=0)]×100.
The normalized purity values in Table 1 were determined after 7 days of incubation.
The chemical stability assessment described in Example 6 was repeated for four pairs of compounds, each differing only by the presence or absence of an Asn-Asn (N—N) doublet at positions 21 and 22.

*1 amine or outer side, *2 acyl side, *3 side chain or, on linkers, in order; H or OH if unused. Where a SMILES comes first, the peptide text is derived from it. Bridges are numbered along the chain shown (N, C = ends). [ ]: non-standard residue; d: D form. The star is where a group is joined. C20 diacid = O=C(O)CCCCCCCCCCCCCCCCCCC(=O)*; Pro(4R-NH2) = N[C@H]1CN[C@H](C(=O)O)C1; γGlu = O=C(O)[C@H](CCC(=O)[*:2])N[*:1]; Hyp = O=C(O)[C@@H]1C[C@@H](O)CN1; NMeI = CC[C@H](C)[C@H](NC)C(=O)O; Sar = CNCC(=O)O

For the compound `CC[C@H](C)[C@@H](C(=O)N[C@@H](CC(C)C)C(=O)N[C@@H](CO)C(=O)N[C@@H](CO)C(=O)N[C@H](C(=O)N[C@@H](CCC(=O)O)C(=O)N[C@H](C(=O)NCC(=O)N[C@@H](CO)C(=O)N[C@@H](CC(N)=O)C(=O)N[C@H](C(=O)N1C[C@H](O)C[C@H]1C(N)=O)[C@@H](C)O)C(C)C)[C@@H](C)O)N(C)C(=O)[C@H](C)NC(=O)CN(C)C(=O)[C@H](Cc1ccccc1)NC(=O)[C@H](CO)NC(=O)[C@H](CO)NC(=O)[C@H](CCCNC(=N)N)NC(=O)[C@@H](NC(=O)[C@H](CC(C)C)NC(=O)[C@H](Cc1ccccc1)NC(=O)[C@H](CC(N)=O)NC(=O)[C@H](C)NC(=O)[C@H](CC(C)C)NC(=O)[C@H](CCCNC(=N)N)NC(=O)[C@H](CCC(=O)O)NC(=O)[C@@H](NC(=O)[C@H](C)NC(=O)[C@@H]1CSSC[C@H](NC(=O)[C@H](CCCNC(=N)N)NC(=O)CC[C@H](NC(=O)CCCCCCCCCCCCCCCCCCC(=O)O)C(=O)O)C(=O)NCC(=O)N[C@@H]([C@@H](C)O)C(=O)N[C@@H](C)C(=O)N[C@@H]([C@@H](C)O)C(=O)N1)[C@@H](C)O)C(C)C` [Compound 17, [19CD]-isoGlu-R-C( )-GTAT-C( )-ATERLANFLVRSSF-Gly(Me)-A-Ile(Me)-LSSTEVGSNT-Hyp-NH2] ({C20 diacid-γGlu}-RCGTATCATERLANFLVRSSF[Sar]A[NMeI]LSSTEVGSNT[Hyp]-NH2; disulfide 2-7), in series [1], the EC50 came to 130 pM.

Consider `CC[C@H](C)[C@@H](C(=O)N[C@@H](CC(C)C)C(=O)N[C@@H](CO)C(=O)N[C@@H](CO)C(=O)N[C@H](C(=O)N[C@@H](CCC(=O)O)C(=O)N[C@H](C(=O)NCC(=O)N[C@@H](CO)C(=O)N[C@@H](CO)C(=O)N[C@H](C(=O)N1C[C@H](N)C[C@H]1C(N)=O)[C@@H](C)O)C(C)C)[C@@H](C)O)N(C)C(=O)[C@H](C)NC(=O)CN(C)C(=O)[C@H](Cc1ccccc1)NC(=O)[C@H](CO)NC(=O)[C@H](CO)NC(=O)[C@H](CCCNC(=N)N)NC(=O)[C@@H](NC(=O)[C@H](CC(C)C)NC(=O)[C@H](Cc1ccccc1)NC(=O)[C@H](Cc1c[nH]cn1)NC(=O)[C@H](C)NC(=O)[C@H](CC(C)C)NC(=O)[C@H](CCCNC(=N)N)NC(=O)[C@H](CCC(=O)O)NC(=O)[C@@H](NC(=O)[C@H](C)NC(=O)[C@@H]1CSSC[C@H](NC(=O)[C@H](CCCNC(=N)N)NC(=O)CC[C@H](NC(=O)CCCCCCCCCCCCCCCCCCC(=O)O)C(=O)O)C(=O)NCC(=O)N[C@@H]([C@@H](C)O)C(=O)N[C@@H](C)C(=O)N[C@@H]([C@@H](C)O)C(=O)N1)[C@@H](C)O)[C@@H](C)O` [Compound 45, [19CD]-isoGlu-R-C( )-GTAT-C( )-ATERLAHFLTRSSF-Gly(Me)-A-Ile(Me)-LSSTEVGSST-Apr-NH2] ({C20 diacid-γGlu}-RCGTATCATERLAHFLTRSSF[Sar]A[NMeI]LSSTEVGSST[Pro(4R-NH2)]-NH2; disulfide 2-7), for which the EC50 in series [1] was found to be 160 pM.

On to `CC[C@H](C)[C@H](NC(=O)[C@@H]1CCCN1C(=O)CNC(=O)[C@H](Cc1ccccc1)NC(=O)[C@H](CC(N)=O)NC(=O)[C@H](CC(N)=O)NC(=O)[C@H](CO)NC(=O)[C@H](CO)NC(=O)[C@H](Cc1c[nH]cn1)NC(=O)[C@H](Cc1c[nH]cn1)NC(=O)[C@H](CC(C)C)NC(=O)[C@H](Cc1ccccc1)NC(=O)[C@H](CCC(=O)O)NC(=O)[C@H](C)NC(=O)[C@H](CC(C)C)NC(=O)[C@H](CCCNC(=N)N)NC(=O)[C@H](CCC(N)=O)NC(=O)[C@@H](NC(=O)[C@H](C)NC(=O)[C@@H]1CSSC[C@H](NC(=O)[C@H](CCCNC(=N)N)NC(=O)CC[C@H](NC(=O)CCCCCCCCCCCCCCCCCCC(=O)O)C(=O)O)C(=O)N[C@@H](CC(N)=O)C(=O)N[C@@H]([C@@H](C)O)C(=O)N[C@@H](C)C(=O)N[C@@H]([C@@H](C)O)C(=O)N1)[C@@H](C)O)C(=O)N[C@@H](CC(C)C)C(=O)N1CCC[C@H]1C(=O)N1CCC[C@H]1C(=O)N[C@H](C(=O)N[C@@H](CC(N)=O)C(=O)N[C@H](C(=O)NCC(=O)N[C@@H](CO)C(=O)N[C@@H](CC(N)=O)C(=O)N[C@H](C(=O)N1CCC[C@H]1C(N)=O)[C@@H](C)O)C(C)C)[C@@H](C)O` [NN96, N-α-[(S)-4-carboxy-4-(19-carboxynonadecanoylamino)butyryl]-[Arg1, Glu14, His17, Pro37]-pramlintide-NH2, reference compound] ({C20 diacid-γGlu}-RCNTATCATQRLAEFLHHSSNNFGPILPPTNVGSNTP-NH2; disulfide 2-7), for which, in series [2] (50 mM acetate buffer pH 4.0, 96 hours), the “Fibrillation pH 4.0 (Ac)” value was “FND”. In addition, in series [2] (50 mM histidine buffer pH 7.0, 96 hours), the “Fibrillation pH 7.0 (His)” value was “FD”. Further, in series [2] (50 mM phosphate buffer pH 7.0, 96 hours), the “Fibrillation pH 7.0 (Phos.)” value is “FD”. Further, the “Normalized purity after 7 days, 40° C., pH 4” value in series [3] (pH 4, 0.2 mg/ml, 7 days, 40° C., Table 1) is “A (A = >90%)”. Moreover, the “Normalized purity pH 4 (Table 5)” value in series [3] (pH 4, repeat of Example 6 for pairs with/without Asn-Asn at 21-22) was “A (A = >90%)”. For the same compound, the “Normalized purity after 7 days, 40° C., pH 6” value in series [3] (pH 6, 0.2 mg/ml, 7 days, 40° C., Table 1) was “A (A = >90%)”. The “Normalized purity pH 6 (Table 5)” value in series [3] (pH 6, repeat of Example 6 for pairs with/without Asn-Asn at 21-22) was “A (A = >90%)”. Besides, the “Normalized purity after 7 days, 40° C., pH 7.5” value in series [3] (pH 7.5, 0.2 mg/ml, 7 days, 40° C., Table 1) was “B (B = 70-90%)”. In addition, in series [3] (pH 7.5, repeat of Example 6 for pairs with/without Asn-Asn at 21-22), the “Normalized purity pH 7.5 (Table 5)” value is “B (B = 70-90%)”. Moreover, the “Normalized purity after 7 days, 40° C., pH 9” value in series [3] (pH 9, 0.2 mg/ml, 7 days, 40° C., Table 1) was “B (B = 70-90%)”. Further, the “Normalized purity pH 9 (Table 5)” value in series [3] (pH 9, repeat of Example 6 for pairs with/without Asn-Asn at 21-22) was “B (B = 70-90%)”.

The record behind these values is US20210115104A1, “AMYLIN ANALOGUES” (Zealand Pharma A/S, priority 2015, published 2021).
